Values of other authors in patent publication US20080161402A1, “Targeting the Reverse Mode of the Na+/Ca2+ Exchanger For the Treatment of Neurodegenerative Conditions” (ALLERGAN, INC., priority 2004, published 2008).

System: Na+/Ca2+ exchanger
Conditions: variety of cell types including neurons; reverse vs forward mode

CS(=O)(=O)O.N=C(N)SCCc1ccc(OCc2ccc([N+](=O)[O-])cc2)cc1 [KB-R743, 2-[2-[4-(4-nitorbenzyloxy)phenyl]ethyl]isothiourea methanesulfonte]
mode selectivity of Na+/Ca2+ exchanger block: preferentially block the reverse mode
